Measurements from patent US8741578B2, “Methods of detecting chronic lymphocytic leukemia with Hsp90 and ZAP-70” (The Regents of the University of California, priority 2004, dated 2014).
Several values for one entry are separate records, joined by “and”; a condition that tells them apart may be missing. Equal values may be shown once. Entries after “also recorded” stand apart in the source; their conditions may differ. Read-outs that look alike come from different tables or passages of the source.

Columns and labels:
[1] = test system: ZAP-70 in CLL cells; experiment: ZAP-70 expression in CLL cells after treatment (intracellular staining, immunoblot); type: cell-based, human; conditions: for IC50: read-out: IC50, dose-dependent reduction of leukemia-cell ZAP-70 expression
Experimental: Cells incubated in media with DMSO 1% final concentration were used as a control (⋄). ZAP-70 expression was evaluated by intracellular staining. […] In addition, immunoblots were probed with anti-Hsp70 and anti-poly ADP-ribose polymerase (PARP-1) monoclonal antibodies. β-actin was used as a protein loading control. […] The cells were stained with specific antibodies and analyze by flow cytometry.
(§1) Protein lysates for immunoblot studies were prepared using RIPA buffer with protease inhibitors (10 μg/ml aprotinin, 10 μg/ml leupeptin, 10 μg/ml pepstatin and 1 mM phenylmethylsulfonyl fluoride), and in some cases phosphatase inhibitors (1 mM Na-Vanadate and 10 mM β-Glycerophosphate). Membranes were probed with antibodies as indicated. Detection was accomplished by chemiluminescence using horseradish peroxidase (HRP) conjugated antibodies followed by development with ECL Plus (Amersham-Biosciences Piscataway, N.J.) and autoradiography with Super RX film (Fuji, Tokyo, Japan)
(§2) Fluorochrome-conjugated monoclonal antibodies were used for flow cytometry. The samples were processed using a FACScalibur (Becton-Dickinson B D, Franklin Lakes, N.J.) and the data were analyzed using Flo-Jo 3.6 software (Stanford University-Tree Star Inc. San Francisco, Calif.). Apoptotic and viable cells were discriminated via flow cytometry with 3,3′ dihexyloxacarbocyanine iodide (DiOC6) (Molecular Probes, Eugene, Oreg.) and propidium iodide (Sigma, St. Louis, Mo.). Using this method viable cells exclude PI and stain brightly positive for DiOC6.

[2] = test system: ZAP-70 in T cells; experiment: ZAP-70 expression in T cells after treatment (flow cytometry); type: cell-based, human
Experimental: Cells incubated in media with DMSO 1% final concentration were used as a control (⋄). ZAP-70 expression was evaluated by intracellular staining. […] The cells were stained with specific antibodies and analyze by flow cytometry.
Fluorochrome-conjugated monoclonal antibodies were used for flow cytometry. The samples were processed using a FACScalibur (Becton-Dickinson B D, Franklin Lakes, N.J.) and the data were analyzed using Flo-Jo 3.6 software (Stanford University-Tree Star Inc. San Francisco, Calif.).

[3] = test system: CLL cells; experiment: Apoptosis of primary CLL cells by flow cytometry (DiOC6/PI); conditions: 100 nM; for Apoptosis after treatment: ZAP-70+ CLL cells
Experimental: IgVH gene mutation was assessed by gene sequencing. Sequences with less than 98 percent homology to the corresponding germ-line IgVH sequence were considered mutated. […] Peripheral blood mononuclear cells (PBMC) from CLL patients were obtained from the CLL Research Consortium (CRC) tissue bank. […] ZAP-70 expression and IgVH gene mutational status were assessed. Cells were incubated in RPMI media at 37° C. with 5% CO2. […] Cell samples were incubated also in media with DMSO (1%) as a control.
as §2

[4] = test system: Purified native Hsp90 protein; conditions: read-out: IC50, inhibition of binding of Hsp90 to biotin-GM
Experimental: Valencia, Calif.) for 1 h at 4° C. Tubes were placed on a magnetic rack, and the unbound supernatant removed. The magnetic beads were washed in lysis buffer and heated for 5 min at 95° C. in SDS-PAGE sample buffer. Samples were analyzed on SDS protein gels, and immunoblots performed using the indicated antibodies. The band intensities in the immunoblots were assessed using the Bio-rad Fluor-S MultiImager, and the percentage inhibition of binding of Hsp90 to the biotin-GM calculated.

[5] = test system: Hsp90 from ZAP-70-negative CLL cells, normal B and T cells; conditions: read-out: IC50, inhibition of binding of Hsp90 to biotin-GM; lysates from ZAP-70-negative CLL cells or normal T or B cells
Experimental: The binding affinity of the ligand is measured by its ability to inhibit the binding of geldanamycin, an inhibitor of Hsp90. The cell containing the Hsp90 is lysed in lysis buffer. The lysates are incubated with or without test agent and then incubated with biotin-geldanamycin linked to BioMag™ sreptavidin magnetic beads (Qiagen). The bound samples and the unbound supernatant can be separately collected and analyzed on SDS protein gels, and blotted using and Hsp90 antibody. The bands in the Western Blots may be quantitated using the Biorad Fluor-S MultiImager, and the percent inhibition of binding of Hsp90 to the biotin-geldanamycin calculated.
Tubes were placed on a magnetic rack, and the unbound supernatant removed. The magnetic beads were washed in lysis buffer and heated for 5 min at 95° C. in SDS-PAGE sample buffer. Samples were analyzed on SDS protein gels, and immunoblots performed using the indicated antibodies. The band intensities in the immunoblots were assessed using the Bio-rad Fluor-S MultiImager, and the percentage inhibition of binding of Hsp90 to the biotin-GM calculated.

[6] = test system: CLL cells in whole blood; experiment: Whole blood apoptosis test of CLL subpopulation (DiOC6, anti-CD5/anti-CD19); conditions: different concentrations, room temperature
Experimental: For example, whole blood cells from patients with CLL or suspected of having CLL can be obtained. […] Red cells are lysed using ammonium-chloride buffer. The cells are stained with specific antibodies and DiOC6. Samples are analyzed by flow cytometry to show a density plot of cells labeled with anti-CD5 and anti-CD19.

[7] = test system: B-cell receptor (BCR) signaling in ZAP-70+ CLL cells; experiment: B-cell receptor signaling after anti-μ stimulation in ZAP-70+ CLL cells (IP/immunoblot)
Experimental: Pxotein lysates were immunoprecipitated (IP) with specific anti-p72^Syk antibody and assessed by western blot (WB) for tyrosine phosphorylation using 4G10 antibody and p72^Syk expression. Protein lysates from the same samples were evaluated by western blot using the indicated antibodies. Activation of NF-κB was assessed by degradation of IκB-α.
Lysates were prepared as described above. Protein-A Sepharose beads (Zymed Laboratories Inc South San Francisco, Calif.) were pre-blocked with 5% BSA. The cell lysates were pre-cleared by incubating with 50 μl of protein-A Sepharose beads (50% slurry). To 100 μl of the pre-cleared cell lysate, either no antibody or antibodies to Hsp90, ZAP-70, p23, Hop, or p72^Syk were added, and incubated by rotating for 1 h at 4° C. Fifty μl of pre-cleared beads (50% slurry) were then added and incubated by rotating for 1 h at 4° C. Bound beads were centrifuged at 3,000×g and unbound samples were collected.
as §1

[8] = test system: Ad-ZAP-70 transduced CLL cells; experiment: Apoptosis of ZAP-70-negative CLL cells transduced with Ad-ZAP-70; type: cell-based, human; conditions: 100 nM, 48 hours after 48 hours of transduction; P≦0.001
Experimental: . (A) ZAP-70-negative leukemia cells were transduced with adenovirus expressing ZAP-70 (Ad-ZAP-70—solid histogram) and β-galactosidase (Ad-LacZ—bold line histogram). Cells were kept in media as a control (dashed line histogram). After 48 hours in culture Ad-ZAP-70 but not Ad-LacZ transduced cells expressed the ZAP-70 transgene (46% expression with a mean fluorescence intensity ratio (MFIR) of 2.8). (B) ZAP-70-negative CLL cells were transduced with adenovirus and after 48 hours they were harvested and lysed. Immunoprecipitations (IP) and immunoblots were performed with the antibodies indicated. […]
cDNA of ZAP-70 extracted from normal T cells was cloned into the CMV promoter and polyadenylation signal of pcDNA3. This construct was then subcloned into the shuttle vector MCS(SK)pXCX2. This shuttle vector was cotransfected with pJM17 into 293 cells using the calcium phosphate method.
Isolated adenovirus plaques were harvested and used to infect 293 cells. High titer adenovirus preparations were obtained. CLL cells were infected with either Ad-ZAP-70 or a control adenovirus vector (Ad-LacZ) for 48 hours at 37° C. using a multiplicity of infection (MOI) of 1000.
. ZAP-70-negative CLL cells were transduced with an adenovirus vector encoding ZAP-70 (Ad-ZAP-70) or β-galactosidase (Ad-LacZ) as a control. […]

| Structure (SMILES) | IC50 ([1]; ZAP-70+ CLL cells, after 24 hours) [µM] | Effect on ZAP-70 expression in T cells ([2]; T cells from CLL patients or healthy donors, even at ≧300 nM) | Post-treatment ZAP-70 mean fluorescence intensity (MFI) ([2]; T cells, 300 nM, 48 hours, prior to treatment 210) | 17-AAG-induced apoptosis, % ([3]; 48 hours, primary CLL cells, each table row is one patient sample (patient no. 1-25)) | Apoptosis after treatment ([3]; 24 hours) [%] | Apoptosis after treatment ([3]; 72 hours) [%] | IC50 [4] [µM] | IC50 [5] [µM] | Induction of apoptosis in whole blood CLL subpopulation [6] | Effect on level/degradation of p72Syk, IKK-α ([7]; ZAP-70+ CLL cells) | Response to BCR ligation with anti-μ (p72Syk phosphorylation, IκB-α degradation) ([7]; prior treatment for ≧24 hours) | Apoptosis compared with non-transduced or Ad-LacZ transduced cells [8] | Post-treatment ZAP-70 mean fluorescence intensity (MFI) ([1]; CLL cells, 300 nM, 48 hours, prior to treatment 110) | IC50 ([1]; Homo sapiens, CLL cell, 24 h) [µM] |
| --- | --- | --- | --- | --- | --- | --- | --- | --- | --- | --- | --- | --- | --- | --- |
| CO[C@H]1/C=C\C=C(/C)C(=O)NC2=CC(=O)C(NCCN(C)C)=C(C[C@@H](C)C[C@H](OC)[C@H](O)[C@@H](C)/C=C(\C)[C@@H]1OC(N)=O)C2=O [17-DMAG, 17-(2-dimethylaminoethy)amino-17-demethoxygeldanamycin] | 0.06 |  |  |  |  |  |  |  |  |  |  |  |  |  |
| C=CCNC1=C2CC(C)CC(OC)C(O)C(C)/C=C(\C)C(OC(N)=O)C(OC)/C=C\C=C(/C)C(=O)NC(=CC1=O)C2=O (centres unmarked) [17-AAG, 17-allylamino-17-demethoxygeldanamycin] |  | did not affect ZAP-70 expression levels in T cells | 190 | 4.7% and 11.5% and 12.3% and 14.9% and 3.7% and 0.5% and 12.6% and 3.4% and 22.4% and 55.4% and 33.9% and 37.9% and 35.4% and 41.3% and 57.9% and 57.7% and 67.4% and 69.4% and 66.8% and 78.8% and 79.9% and 74.4% and 3.9% and 4.5% and 1.2% | 30 | 50 | 0.6 | ≥ 0.3 | exclusively in the ZAP-70 positive cells | did not alter the level of p72^Syk; also recorded: did not induce degradation of p72^Syk or IKK-α | inert to stimulation with anti-μ antibody | significantly higher level of apoptosis | 25 | 0.06 |
